Experimental data taken from patent US7138361B2, “Herbicidal heterocycles” (E. I. du Pont de Nemours and Company, priority 2000, dated 2006).

Key:
Assay type in all cases: in vivo
[1] = system: Surinam grass (Brachiaria decumbens); assay: Test B postemergence; settings: 13 to 15 days
How it was run: (§1)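 Pre: seeded pots sprayed, chemical in non-phytotoxic solvent/surfactant mix. Post: plants 2–18 cm, 1–4 leaf, same formulation. Greenhouse 13–15 d; visual % control vs untreated, 0–100 scale.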

[2] = system: barnyardgrass (Echinochloa crus-galli); assay: Test B postemergence; settings: 13 to 15 days
How it was run: as §1

[3] = system: blackgrass (Alopecurus myosuroides); assay: Test B postemergence; settings: 13 to 15 days
How it was run: as §1

[4] = system: cocklebur (Xanthium strumarium); assay: Test B postemergence; settings: 13 to 15 days
How it was run: as §1

[5] = system: corn (Zea mays); assay: Test B postemergence; settings: 13 to 15 days
How it was run: as §1

[6] = system: crabgrass (Digitaria sanguinalis); assay: Test B postemergence; settings: 13 to 15 days
How it was run: as §1

[7] = system: giant foxtail (Setaria faberii); assay: Test B postemergence; settings: 13 to 15 days
How it was run: as §1

[8] = system: lambsquarters (Chenopodium album); assay: Test B postemergence; settings: 13 to 15 days
How it was run: as §1

[9] = system: morning glory (Ipomoea hederacea); assay: Test B postemergence; settings: 13 to 15 days
How it was run: as §1

[10] = system: pigweed (Amaranthus retroflexus); assay: Test B postemergence; settings: 13 to 15 days
How it was run: as §1

[11] = system: velvetleaf (Abutilon theophrasti); assay: Test B postemergence; settings: 13 to 15 days
How it was run: as §1

[12] = system: wheat (Triticum aestivum); assay: Test B postemergence; settings: 13 to 15 days
How it was run: as §1

[13] = system: wild oat (Avena fatua); assay: Test B postemergence; settings: 13 to 15 days
How it was run: as §1

[14] = system: Surinam grass (Brachiaria decumbens); assay: Test B preemergence
How it was run: as §1

[15] = system: barnyardgrass (Echinochloa crus-galli); assay: Test B preemergence
How it was run: as §1

[16] = system: cocklebur (Xanthium strumarium); assay: Test B preemergence
How it was run: as §1

[17] = system: corn (Zea mays); assay: Test B preemergence
How it was run: as §1

[18] = system: crabgrass (Digitaria sanguinalis); assay: Test B preemergence
How it was run: as §1

[19] = system: giant foxtail (Setaria faberii); assay: Test B preemergence
How it was run: as §1

[20] = system: lambsquarters (Chenopodium album); assay: Test B preemergence
How it was run: as §1

[21] = system: morning glory (Ipomoea hederacea); assay: Test B preemergence
How it was run: as §1

[22] = system: pigweed (Amaranthus retroflexus); assay: Test B preemergence
How it was run: as §1

[23] = system: rice (Oryza saliva); assay: Test B preemergence
How it was run: as §1

[24] = system: velvetleaf (Abutilon theophrasti); assay: Test B preemergence
How it was run: as §1

[25] = system: barnyardgrass (Echinochloa crus-galli); assay: Test B flooded paddy test; settings: Rate 1000 g/ha, scale of 0 to 100 where 0 is no effect and 100 is complete control, visually evaluated after 13 to 15 days
How it was run: (§2)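 2-leaf plants, flooded paddy; greenhouse 13–15 d post-treatment; visual rating vs controls, 0–100 scale (0 = no effect, 100 = complete control); dash = no result.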

[26] = system: duck salad (Heteranthera limosa); assay: Test B flooded paddy test; settings: Rate 1000 g/ha, scale of 0 to 100 where 0 is no effect and 100 is complete control, visually evaluated after 13 to 15 days
How it was run: as §2

[27] = system: rice (Oryza saliva); assay: Test B flooded paddy test; settings: Rate 1000 g/ha, scale of 0 to 100 where 0 is no effect and 100 is complete control, visually evaluated after 13 to 15 days
How it was run: as §2

[28] = system: smallflower flatsedge (Cyperus difformis); assay: Test B flooded paddy test; settings: Rate 1000 g/ha, scale of 0 to 100 where 0 is no effect and 100 is complete control, visually evaluated after 13 to 15 days
How it was run: as §2

[29] = system: barnyardgrass (Echinochloa crus-galli); assay: Test C flooded paddy test; settings: for Barnyardgrass plant response rating: Flooded Paddy, scale 0 to 100, 0 no effect, 100 complete control; for Plant response rating, Barnyardgrass: flooded paddy test, scale 0 to 100 (0 no effect, 100 complete control)
How it was run: (§3)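 Visually assessed vs untreated controls 12–14 d post-treatment (greenhouse). Flooded paddy plants were at the 2-leaf stage; scale 0 = no effect, 100 = complete control.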

[30] = system: duck salad (Heteranthera limosa); assay: Test C flooded paddy test; settings: for Ducksalad plant response rating: Flooded Paddy, scale 0 to 100, 0 no effect, 100 complete control; for Plant response rating, Ducksalad: flooded paddy test, scale 0 to 100 (0 no effect, 100 complete control)
How it was run: as §3

[31] = system: rice (Oryza saliva); assay: Test C flooded paddy test; settings: for Rice plant response rating: Flooded Paddy, scale 0 to 100, 0 no effect, 100 complete control; for Plant response rating, Rice: flooded paddy test, scale 0 to 100 (0 no effect, 100 complete control)
How it was run: as §3

[32] = system: smallflower flatsedge (Cyperus difformis); assay: Test C flooded paddy test; settings: for Flatsedge plant response rating: Flooded Paddy, scale 0 to 100, 0 no effect, 100 complete control; for Plant response rating, Flatsedge: flooded paddy test, scale 0 to 100 (0 no effect, 100 complete control)
How it was run: as §3

[33] = Rate 125 g/ha, scale 0 (no effect) to 100 (complete control)
[34] = Rate 500 g/ha, scale 0 to 100, 0 is no effect, 100 is complete control
[35] = Preemergence, Rate 500 g/ha, scale 0 to 100, 0 no effect, 100 complete control
[36] = preemergence, Rate 125 g/ha, scale of 0 to 100 where 0 is no effect and 100 is complete control, 13 to 15 days
[37] = preemergence, Rate 125 g/ha, scale 0 to 100, 0 no effect, 100 complete control

CC(C)(C)c1ccn(C2CCN(c3cc(C(F)(F)F)cc(C(F)(F)F)c3)C2=O)n1 (centres unmarked) [Compound 54]
30: Plant response rating, Lambsquarters [8, 34] | Plant response rating, Ducksalad [26]
20: Plant response rating, Cocklebur [4, 34] | Plant response rating, Morningglory [9, 34] | Barnyardgrass plant response rating ([29]; Rate 250 g/ha) | Barnyardgrass plant response rating ([29]; Rate 500 g/ha)
80: Plant response rating, Barnyardgrass [25] | Flatsedge plant response rating ([32]; Rate 500 g/ha)
0: Plant response rating, Surinam grass [1, 33] | Plant response rating, Surinam grass [1, 34] | Plant response rating, Barnyardgrass [2, 33] | Plant response rating, Barnyardgrass [2, 34] | Plant response rating, Blackgrass [3, 33] | Plant response rating, Blackgrass [3, 34] | Plant response rating, Cocklebur [4, 33] | Plant response rating, Corn [5, 33] | Plant response rating, Corn [5, 34] | Plant response rating, Crabgrass [6, 33] | Plant response rating, Crabgrass [6, 34] | Plant response rating, Foxtail, Giant [7, 33] | Plant response rating, Foxtail, Giant [7, 34] | Plant response rating, Lambsquarters [8, 33] | Plant response rating, Morningglory [9, 33] | Plant response rating, Pigweed [10, 33] | Plant response rating, Pigweed [10, 34] | Plant response rating, Velvetleaf [11, 33] | Plant response rating, Velvetleaf [11, 34] | Plant response rating, Wheat [12, 33] | Plant response rating, Wheat [12, 34] | Plant response rating, Wild Oat [13, 33] | Plant response rating, Wild Oat [13, 34] | Plant response rating, Surinam grass [14, 35] | Plant response rating, Surinam grass [14, 36] | Plant response rating, Barnyardgrass [15, 35] | Plant response rating, Barnyardgrass [15, 36] | Plant response rating, Cocklebur [16, 35] | Plant response rating, Cocklebur [16, 36] | Plant response rating, Corn [17, 35] | Plant response rating, Corn [17, 36] | Plant response rating, Crabgrass [18, 35] | Plant response rating, Crabgrass [18, 36] | Plant response rating, Foxtail, Giant [19, 35] | Plant response rating, Foxtail, Giant [19, 36] | Plant response rating, Lambsquarters [20, 35] | Plant response rating, Lambsquarters [20, 36] | Plant response rating, Morningglory [21, 35] | Plant response rating, Morningglory [21, 36] | Plant response rating, Pigweed [22, 35] | Plant response rating, Pigweed [22, 36] | Plant response rating, Rice [23, 35] | Plant response rating, Rice [23, 36] | Plant response rating, Velvetleaf [24, 35] | Plant response rating, Velvetleaf [24, 36] | Plant response rating, Rice [27] | Plant response rating, Barnyardgrass ([29]; Rate 62 g/ha) | Plant response rating, Barnyardgrass ([29]; Rate 125 g/ha) | Ducksalad plant response rating ([30]; Rate 250 g/ha) | Ducksalad plant response rating ([30]; Rate 500 g/ha) | Plant response rating, Ducksalad ([30]; Rate 62 g/ha) | Plant response rating, Ducksalad ([30]; Rate 125 g/ha) | Rice plant response rating ([31]; Rate 250 g/ha) | Rice plant response rating ([31]; Rate 500 g/ha) | Plant response rating, Rice ([31]; Rate 62 g/ha) | Plant response rating, Rice ([31]; Rate 125 g/ha) | Flatsedge plant response rating ([32]; Rate 250 g/ha) | Plant response rating, Flatsedge ([32]; Rate 62 g/ha) | Plant response rating, Flatsedge ([32]; Rate 125 g/ha)
90: Plant response rating, Flatsedge [28]

Cc1ccc(N2CCC(n3ccc(C(C)(C)C)n3)C2=O)cc1Br (centres unmarked) [Compound 35]
60: Plant response rating, Barnyardgrass [15, 35] | Plant response rating, Barnyardgrass [25]
0: Plant response rating, Surinam grass [1, 33] | Plant response rating, Surinam grass [1, 34] | Plant response rating, Barnyardgrass [2, 33] | Plant response rating, Blackgrass [3, 33] | Plant response rating, Blackgrass [3, 34] | Plant response rating, Corn [5, 33] | Plant response rating, Corn [5, 34] | Plant response rating, Crabgrass [6, 33] | Plant response rating, Crabgrass [6, 34] | Plant response rating, Foxtail, Giant [7, 33] | Plant response rating, Foxtail, Giant [7, 34] | Plant response rating, Lambsquarters [8, 33] | Plant response rating, Morningglory [9, 33] | Plant response rating, Velvetleaf [11, 33] | Plant response rating, Velvetleaf [11, 34] | Plant response rating, Wheat [12, 33] | Plant response rating, Wheat [12, 34] | Plant response rating, Wild Oat [13, 33] | Plant response rating, Wild Oat [13, 34] | Plant response rating, Surinam grass [14, 35] | Plant response rating, Surinam grass [14, 37] | Plant response rating, Barnyardgrass [15, 37] | Plant response rating, Cocklebur [16, 35] | Plant response rating, Cocklebur [16, 37] | Plant response rating, Corn [17, 35] | Plant response rating, Corn [17, 37] | Plant response rating, Crabgrass [18, 37] | Plant response rating, Foxtail, Giant [19, 35] | Plant response rating, Foxtail, Giant [19, 37] | Plant response rating, Lambsquarters [20, 37] | Plant response rating, Morningglory [21, 35] | Plant response rating, Rice [23, 35] | Plant response rating, Velvetleaf [24, 35] | Plant response rating, Ducksalad [26] | Plant response rating, Rice [27]
90: Plant response rating, Pigweed [10, 33] | Plant response rating, Pigweed [10, 34]
100: Plant response rating, Crabgrass [18, 35] | Plant response rating, Lambsquarters [20, 35] | Plant response rating, Pigweed [22, 35] | Plant response rating, Flatsedge [28]
40: Plant response rating, Barnyardgrass [2, 34] | Plant response rating, Cocklebur [4, 33] | Plant response rating, Cocklebur [4, 34]
20: Plant response rating, Morningglory [9, 34]
80: Plant response rating, Lambsquarters [8, 34]
